# Measurements reported in patent US20250144067A1, “PERSONALIZED STARVATION THERAPY FOR CANCER” (Faeth Therapeutics, Inc., priority 2021, published 2025).
# Where a name gives a salt, the structure may show the parent alone.
# Assays:
# [1] = system: NCI-H292 lung cancer cells; assay: FDA drug screening, complete media vs cholesterol-free media without statin (TABLE 1); type: cell-based, human
# [2] = system: NCI-H292 lung cancer cells; assay: FDA drug screening, complete media vs cholesterol-free media with simvastatin (TABLE 2); type: cell-based, human; conditions: for Cholesterol-free media + simvastatin (0.04 μM) / Complete Media: NCI-H292 cells
# [3] = NCI-H292 cells, cholesterol-free media without statin, FDA drug library screen
# [4] = NCI-H292 cells, complete media, FDA drug library screen
# [5] = complete vs cholesterol-free media, >0 enhanced anti-cancer activity, about 0 neutral, <0 antagonist
# [6] = cholesterol-free media with simvastatin 0.04 μM, FDA drug library screen (TABLE 2)
# [7] = complete media, FDA drug library screen (TABLE 2)
# [8] = complete media minus cholesterol-free media + simvastatin (0.04 μM), >0 enhanced anti-cancer activity, about 0 neutral, <0 antagonist
# [9] = Complete minus Cholesterol-free, […]
# [10] = NCI-H292 cells, FDA drug library screen, cholesterol-free media without statin
# [11] = NCI-H292 cells, FDA drug library screen, complete media
# [12] = FDA drug library screen, cholesterol-free media with simvastatin 0.04 μM
# [13] = FDA drug library screen, complete media
# [14] = complete media minus cholesterol-free media + simvastatin, >0 enhanced anti-cancer activity, about 0 neutral, <0 antagonist
# [15] = Complete minus Cholesterol-free, greater than 0 enhanced anti-cancer activity, about 0 neutral, below 0 antagonists
# [16] = NCI-H292 cells in cholesterol-free media without statin
# [17] = complete media vs cholesterol-free media + simvastatin (0.04 μM), >0 enhanced anti-cancer activity, about 0 neutral, <0 antagonist
# [18] = NCI-H292 cells, cholesterol-free media without statin
# [19] = complete vs cholesterol-free media, greater than 0 enhanced anti-cancer activity, about 0 neutral, below 0 antagonists
# [20] = cholesterol-free media with simvastatin 0.04 μM, cell growth value in FDA drug screen
# [21] = complete media, cell growth value in FDA drug screen
# [22] = complete media minus cholesterol-free media + simvastatin, […]
# [23] = Complete minus Cholesterol-free, >0 enhanced anti-cancer activity, about 0 neutral, <0 antagonist
# [24] = drug in cholesterol-free media with simvastatin 0.04 μM
# [25] = FDA library drug in cholesterol-free media with simvastatin 0.04 μM
# [26] = FDA library drug in complete media
# [27] = Complete minus Cholesterol-free, greater than 0 enhanced anti-cancer activity, about 0 neutral, below 0 antagonist
compound,measurement,setting,value
Cc1cc(C(=O)NNCc2ccccc2)no1 [Isocarboxazid],Cholesterol-free,[1]; [3],0.685
same,Complete,[1]; [4],1.428
same,Difference,[1]; [5],0.74
same,Cholesterol-free media + simvastatin (0.04 μM),[2]; [6],1.551
same,Complete Media,[2]; [7],1.506
same,Difference,[2]; [8],−0.05
COc1ccc2c(c1O)-c1c(OC)c(OC)cc3c1[C@H](C2)N(C)CC3 [Isocorydine],Difference,[1]; [9],−0.17
same,Cholesterol-free,[1]; [10],1.162
same,Complete,[1]; [11],0.9961
same,Cholesterol-free media + simvastatin (0.04 μM),[2]; [6],1.273
same,Complete Media,[2]; [7],1.214
same,Difference,"[2]; complete media minus cholesterol-free media + simvastatin (0.04 μM), […]",−0.06
NNC(=O)c1ccncc1 [Isoniazid],Cholesterol-free,[1]; [3],0.6633
same,Complete,[1]; [4],1.357
same,Difference,[1]; [5],0.69
same,Cholesterol-free media + simvastatin (0.04 μM),[2]; [12],1.455
same,Complete Media,[2]; [13],1.672
same,Difference,[2]; [14],0.22
CC(C)NCC(O)c1ccc(O)c(O)c1 (centres unmarked) [Isoprenaline (hydrochloride)],Difference,[1]; [15],−0.50
same,Cholesterol-free,[1]; [16],1.676
same,Cholesterol-free media + simvastatin (0.04 μM),[2]; [12],1.496
same,Complete Media,[2]; [13],1.355
same,Difference,[2]; [17],−0.14
CC(C)[N+](C)(CCC(C(N)=O)(c1ccccc1)c1ccccc1)C(C)C.[I-] [Isopropamide (iodide)],Cholesterol-free,[1]; [18],1.319
same,Complete,"[1]; NCI-H292 cells, complete media",0.9185
same,Difference,[1]; [19],−0.40
same,Cholesterol-free media + simvastatin (0.04 μM),[2]; [20],0.9908
same,Complete Media,[2]; [21],1.047
same,Difference,[2]; [14],0.06
O=[N+]([O-])O[C@@H]1CO[C@H]2[C@@H]1OC[C@@H]2O [Isosorbide mononitrate],Cholesterol-free,[1]; [18],1.459
same,Complete,"[1]; NCI-H292 cells, complete media",1.127
same,Difference,"[1]; complete vs cholesterol-free media, […]",−0.33
same,Cholesterol-free media + simvastatin (0.04 μM),[2]; [12],0.8339
same,Complete Media,[2]; [13],1.021
same,Difference,[2]; [22],0.19
O[C@@H]1CO[C@H]2[C@@H]1OC[C@@H]2O [Isosorbide],Difference,[1]; [23],−0.05
same,Cholesterol-free,[1]; [3],1.174
same,Complete,[1]; [4],1.123
same,Cholesterol-free media + simvastatin (0.04 μM),[2]; [12],0.9214
same,Complete Media,[2]; [13],1.515
same,Difference,[2]; [14],0.59
CCN(CC)c1ccc(C(=C2C=CC(=[N+](CC)CC)C=C2)c2cc(S(=O)(=O)[O-])ccc2S(=O)(=O)[O-])cc1.[Na+] [Isosulfan blue],Difference,[1]; [9],−0.07
same,Cholesterol-free,[1]; [3],1.156
same,Complete,[1]; [4],1.087
same,Cholesterol-free media + simvastatin (0.04 μM),"[2]; cholesterol-free media with simvastatin 0.04 μM, […]",1.148
same,Complete Media,"[2]; complete media, […]",1.247
same,Difference,[2]; [22],0.10
Cc1cc(NC(=O)C2=C(O)c3ccccc3S(=O)(=O)N2C)no1 [Isoxicam],Difference,[1]; [15],−0.71
same,Cholesterol-free,[1]; [16],1.72
same,Complete,[1]; NCI-H292 cells in complete media,1.015
same,Cholesterol-free media + simvastatin (0.04 μM),[2]; [24],1.282
same,Complete Media,[2]; drug in complete media,1.064
same,Difference,[2]; [17],−0.22
CC(COc1ccccc1)NC(C)C(O)c1ccc(O)cc1 (centres unmarked) [Isoxsuprine hydrochloride],Cholesterol-free,[1]; [18],1.314
same,Complete,"[1]; NCI-H292 cells, complete media",0.939
same,Difference,[1]; [19],−0.38
same,Cholesterol-free media + simvastatin (0.04 μM),[2]; [24],0.8873
same,Complete Media,[2]; drug in complete media,0.6774
same,Difference,[2]; [17],−0.21
COC(=O)C1=C(C)NC(C)=C(C(=O)OC(C)C)C1c1cccc2nonc12 (centres unmarked) [Isradipine],Cholesterol-free,[1]; [18],1.16
same,Complete,"[1]; NCI-H292 cells, complete media",0.8034
same,Difference,[1]; [19],−0.36
same,Cholesterol-free media + simvastatin (0.04 μM),[2]; [12],0.7485
same,Complete Media,[2]; [13],1.061
same,Difference,[2]; [14],0.31
CCn1c(=O)c2c(nc(/C=C/c3ccc(OC)c(OC)c3)n2C)n(CC)c1=O [Istradefylline],Cholesterol-free,[1]; [3],0.9821
same,Difference,[1]; [5],0.19
same,Cholesterol-free media + simvastatin (0.04 μM),[2]; [24],1.183
same,Complete Media,[2]; drug in complete media,0.9547
same,Difference,[2]; [17],−0.23
COc1ccc(C(=O)NCc2ccc(OCCN(C)C)cc2)cc1OC [Itopride (hydrochloride)],Difference,[1]; [23],−0.04
same,Cholesterol-free,[1]; [3],1.141
same,Complete,[1]; [4],1.104
same,Cholesterol-free media + simvastatin (0.04 μM),[2]; [25],1.711
same,Complete Media,[2]; [26],1.056
same,Difference,[2]; [17],−0.65
CCC(C)n1ncn(-c2ccc(N3CCN(c4ccc(OCC5COC(Cn6cncn6)(c6ccc(Cl)cc6Cl)O5)cc4)CC3)cc2)c1=O (centres unmarked) [Itraconazole],Cholesterol-free,[1]; [3],0.7502
same,Complete,[1]; [4],1.257
same,Difference,[1]; [5],0.51
same,Cholesterol-free media + simvastatin (0.04 μM),[2]; [12],1.121
same,Complete Media,[2]; [13],0.9797
same,Difference,[2]; [17],−0.14
COc1cc2c(cc1OC)CC(=O)N(CCCN(C)C[C@H]1Cc3cc(OC)c(OC)cc31)CC2 [Ivabradine (hydrochloride)],Difference,[1]; [19],−0.47
same,Cholesterol-free media + simvastatin (0.04 μM),[2]; [12],1.338
same,Complete Media,[2]; [13],1.217
same,Difference,[2]; [17],−0.12
CC(C)(C)c1cc(C(C)(C)C)c(NC(=O)c2c[nH]c3ccccc3c2=O)cc1O [Ivacaftor],Difference,[1]; [27],−0.10
same,Cholesterol-free,[1]; [10],0.9826
same,Complete,[1]; [11],0.878
same,Cholesterol-free media + simvastatin (0.04 μM),[2]; [12],1.021
same,Complete Media,[2]; [13],0.931
same,Difference,[2]; [17],−0.09
CC[C@H](C)[C@H]1O[C@]2(CC[C@@H]1C)C[C@@H]1C[C@@H](C/C=C(\C)[C@@H](O[C@H]3C[C@H](OC)[C@@H](O[C@H]4C[C@H](OC)[C@@H](O)[C@H](C)O4)[C@H](C)O3)[C@@H](C)/C=C/C=C3\CO[C@@H]4[C@H](O)C(C)=C[C@@H](C(=O)O1)[C@]34O)O2 [Ivermectin],Difference,[1]; [9],0.00
same,Cholesterol-free,[1]; [3],0.1454
same,Complete,[1]; [4],0.1503
same,Cholesterol-free media + simvastatin (0.04 μM),[2]; [25],1.074
same,Complete Media,[2]; [26],0.4557
same,Difference,"[2]; complete media vs cholesterol-free media + simvastatin (0.04 μM), […]",−0.62
N#Cc1ccnc(N2C(=O)CC[C@H]2C(=O)N(c2cncc(F)c2)[C@H](C(=O)NC2CC(F)(F)C2)c2ccccc2Cl)c1 [Ivosidenib],Difference,[1]; [27],−0.17
same,Cholesterol-free,[1]; [10],0.9061
same,Complete,[1]; [11],0.7326
same,Cholesterol-free media + simvastatin (0.04 μM),[2]; [20],0.8742
same,Complete Media,[2]; [21],0.9265
same,Difference,[2]; [14],0.05
C/C(=C\c1csc(C)n1)[C@@H]1C[C@@H]2O[C@]2(C)CCC[C@H](C)[C@H](O)[C@@H](C)C(=O)C(C)(C)[C@@H](O)CC(=O)N1 [Ixabepilone],Difference,[1]; [23],−0.01
same,Cholesterol-free,[1]; [3],0.1019
same,Complete,[1]; [4],0.09155
same,Cholesterol-free media + simvastatin (0.04 μM),[2]; [6],0.1261
same,Complete Media,[2]; [7],0.1336
same,Difference,[2]; [8],0.01
CC(C)C[C@H](NC(=O)CNC(=O)c1cc(Cl)ccc1Cl)B1OC(=O)C(CC(=O)O)(CC(=O)O)O1 [Ixazomib citrate],Cholesterol-free,[1]; [3],−0.00597
same,Complete,[1]; [4],0.1018
same,Difference,[1]; [5],0.11
same,Cholesterol-free media + simvastatin (0.04 μM),[2]; [12],0.141
same,Complete Media,[2]; [13],0.02787
same,Difference,[2]; [17],−0.11
CC(C)C[C@H](NC(=O)CNC(=O)c1cc(Cl)ccc1Cl)B(O)O [Ixazomib],Difference,[1]; [23],−0.06
same,Cholesterol-free,[1]; [3],0.05045
same,Complete,[1]; [4],−0.01336
same,Cholesterol-free media + simvastatin (0.04 μM),[2]; [6],0.01223
same,Complete Media,[2]; [7],−0.009398
same,Difference,[2]; [8],−0.02
CO[C@@H]1[C@@H](O[C@@H]2O[C@H](C)[C@@H](O[C@H]3C[C@@](C)(O)[C@@H](OC(=O)CC(C)C)[C@H](C)O3)[C@H](N(C)C)[C@H]2O)[C@@H](CC=O)C[C@@H](C)[C@@H](O)/C=C/C=C/C[C@@H](C)OC(=O)C[C@H]1OC(C)=O [Josamycin],Cholesterol-free,[1]; [3],0.6797
same,Complete,[1]; [4],1.216
same,Difference,[1]; [5],0.54
same,Cholesterol-free media + simvastatin (0.04 μM),[2]; [12],0.9194
same,Complete Media,[2]; [13],0.8246
same,Difference,[2]; [17],−0.09
